For the assay, the system named is T1, GluK2 receptor.
T1 construct: gene GRIK2
Put plainly: aequorin luminescence Ca2+ influx assay in HEK293 cells. It counts as cell-based. Particulars: 275 μM glutamate as agonist, Ringer buffer + 100 mM CaCl2. The text has this:
aequorin luminescence Ca2+ influx assay in HEK293 cells on GluK2 receptor

pIC50: −log10 of the molar value.

One may read the pIC50 as the IC50 on a negative log10 scale, so that one unit is a factor of ten. On to `COc1ccc2c(c1)c(C)c(-c1cccs1)n2C` [compound 3, 5-methoxy-1,3-dimethyl-2-(2-thienyl)indole], for which the pIC50 (non-competitive) is 4.92.

As to `O=C1CCCc2c1c1ccccc1n2Cc1ccc(Cl)cc1` [compound 7, 9-(4-chlorobenzyl)-4-oxo-1,2,3,4-tetrahydrocarbazole], the “GluK2 inhibition at 100 µM, %” value was found to be 22%.
